# Results from publication PMC10491595, “Activation of the integrated stress response by inhibitors of its kinases” (Nature Communications, 2023).
# Key:
# [1] = target: T1, GCN2 (Homo sapiens, UniProt Q9P2K8); test: in vitro kinase assay; assay type: biochemical
# T1 construct: gene EIF2AK4; GST-GCN2 fragment (192-1024)
# T1 sequence (Q9P2K8 192-1024): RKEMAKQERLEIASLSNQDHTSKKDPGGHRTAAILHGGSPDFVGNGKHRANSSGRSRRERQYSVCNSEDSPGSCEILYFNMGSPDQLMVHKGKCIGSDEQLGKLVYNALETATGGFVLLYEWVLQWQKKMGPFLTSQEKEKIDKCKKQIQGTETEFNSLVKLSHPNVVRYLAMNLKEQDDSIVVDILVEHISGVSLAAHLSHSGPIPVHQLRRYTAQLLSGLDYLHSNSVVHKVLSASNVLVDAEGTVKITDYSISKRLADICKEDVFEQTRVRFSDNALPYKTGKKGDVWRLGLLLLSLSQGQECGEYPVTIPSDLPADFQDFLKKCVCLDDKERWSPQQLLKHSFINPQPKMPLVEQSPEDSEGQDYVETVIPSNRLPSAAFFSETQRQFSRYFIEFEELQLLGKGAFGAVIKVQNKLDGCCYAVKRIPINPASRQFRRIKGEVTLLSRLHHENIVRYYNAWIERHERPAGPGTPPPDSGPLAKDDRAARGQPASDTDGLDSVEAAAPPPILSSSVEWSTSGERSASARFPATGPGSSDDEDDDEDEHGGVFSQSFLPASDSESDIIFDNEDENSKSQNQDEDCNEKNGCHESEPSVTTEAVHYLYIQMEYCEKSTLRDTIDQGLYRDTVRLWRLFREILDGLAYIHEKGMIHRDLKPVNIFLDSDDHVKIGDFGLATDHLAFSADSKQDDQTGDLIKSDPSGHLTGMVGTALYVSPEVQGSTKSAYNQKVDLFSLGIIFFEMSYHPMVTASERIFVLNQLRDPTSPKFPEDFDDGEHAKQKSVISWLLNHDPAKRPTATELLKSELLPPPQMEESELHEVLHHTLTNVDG
# [2] = target: T1, GCN2; test: in vitro kinase assay (Gaussian activation then inhibition); thermal shift of kinase domain; competition with A92; assay type: biochemical
# [3] = target: T2, PERK (Homo sapiens, UniProt Q9NZJ5); test: PERK activation (mobility shift) immunoblot in tunicamycin-treated HeLa cells; assay type: cell-based
# T2 construct: gene EIF2AK3
# T2 sequence (Q9NZJ5 30-1116): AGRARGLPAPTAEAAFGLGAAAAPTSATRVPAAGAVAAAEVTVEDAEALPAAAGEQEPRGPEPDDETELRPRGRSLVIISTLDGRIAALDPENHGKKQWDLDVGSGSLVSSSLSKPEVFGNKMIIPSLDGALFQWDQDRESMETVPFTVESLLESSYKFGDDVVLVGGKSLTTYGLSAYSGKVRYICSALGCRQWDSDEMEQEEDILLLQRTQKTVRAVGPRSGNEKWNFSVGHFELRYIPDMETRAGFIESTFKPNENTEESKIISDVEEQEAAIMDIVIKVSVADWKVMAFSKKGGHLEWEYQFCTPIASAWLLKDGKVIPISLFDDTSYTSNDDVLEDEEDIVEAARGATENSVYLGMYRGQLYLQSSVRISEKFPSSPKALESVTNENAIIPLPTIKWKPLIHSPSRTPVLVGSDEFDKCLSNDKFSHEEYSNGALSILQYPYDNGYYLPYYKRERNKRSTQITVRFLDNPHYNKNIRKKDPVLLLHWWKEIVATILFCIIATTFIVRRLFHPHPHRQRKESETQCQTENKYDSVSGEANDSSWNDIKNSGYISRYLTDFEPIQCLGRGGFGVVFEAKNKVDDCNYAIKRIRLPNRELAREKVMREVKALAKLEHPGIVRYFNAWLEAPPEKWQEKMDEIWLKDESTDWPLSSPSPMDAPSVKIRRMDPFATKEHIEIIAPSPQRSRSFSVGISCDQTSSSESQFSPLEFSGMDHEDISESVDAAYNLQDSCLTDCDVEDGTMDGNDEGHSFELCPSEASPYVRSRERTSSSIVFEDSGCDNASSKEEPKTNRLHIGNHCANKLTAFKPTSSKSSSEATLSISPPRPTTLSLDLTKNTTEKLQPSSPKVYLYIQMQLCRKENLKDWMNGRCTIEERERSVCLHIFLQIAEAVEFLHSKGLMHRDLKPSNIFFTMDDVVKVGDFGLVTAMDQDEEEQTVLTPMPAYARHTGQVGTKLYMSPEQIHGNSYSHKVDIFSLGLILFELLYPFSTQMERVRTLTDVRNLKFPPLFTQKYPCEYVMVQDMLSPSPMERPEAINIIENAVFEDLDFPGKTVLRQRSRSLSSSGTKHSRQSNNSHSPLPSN
# [4] = target: the molecule itself; test: SEC-MALS; GST-GCN2 fragment at ~1.7 mg/ml, incubated 20 min at 30 °C with DMSO or 50 µM GSK'157; Superdex 200 Increase 10/300 GL, 10 mM HEPES, 150 mM NaCl, 1 mM TCEP with DMSO or 50 µM GSK'157; same result in both conditions
molecule,measurement,setting,value
Nc1ncnc2c1ncn2[C@@H]1O[C@H](CO[P@](=O)(O)O[P@](=O)(O)NP(=O)(O)O)[C@@H](O)[C@H]1O [AMP-PNP],in vitro kinase assay,[1],~ 250 μM
"Cc1cccc(CC(=O)N2CCc3c2ccc(-c2cn(C)c4ncnc(N)c24)c3F)n1 [GSK'157, GSK2656157]",in vitro kinase assay (Gaussian activation then inhibition); thermal shift of ki,[2],~ 5 μM
same,PERK activation (mobility shift) immunoblot in tunicamycin-treated HeLa cells,[3],0.02 to 10 µM
"in-house recombinant GST-GCN2 fragment (192-1024) (domain or fragment, UniProt Q9P2K8 192-1024, looked up, GCN2 (eIF2alpha kinase 4), residues 192-1024; MW of the GST fusion ~135 kDa as printed; eluted with glutathione, no cleavage of GST is described; GST itself is known to dimerise, so the dimer may owe to the tag (my surmise); also called recombinant GCN2; source: Sf9 (baculovirus), purified (Glutathione Sepharose 4B, Superdex 200); not shown: GST, N-terminal, kept) RKEMAKQERLEIASLSNQDHTSKKDPGGHRTAAILHGGSPDFVGNGKHRANSSGRSRRERQYSVCNSEDSPGSCEILYFNMGSPDQLMVHKGKCIGSDEQLGKLVYNALETATGGFVLLYEWVLQWQKKMGPFLTSQEKEKIDKCKKQIQGTETEFNSLVKLSHPNVVRYLAMNLKEQDDSIVVDILVEHISGVSLAAHLSHSGPIPVHQLRRYTAQLLSGLDYLHSNSVVHKVLSASNVLVDAEGTVKITDYSISKRLADICKEDVFEQTRVRFSDNALPYKTGKKGDVWRLGLLLLSLSQGQECGEYPVTIPSDLPADFQDFLKKCVCLDDKERWSPQQLLKHSFINPQPKMPLVEQSPEDSEGQDYVETVIPSNRLPSAAFFSETQRQFSRYFIEFEELQLLGKGAFGAVIKVQNKLDGCCYAVKRIPINPASRQFRRIKGEVTLLSRLHHENIVRYYNAWIERHERPAGPGTPPPDSGPLAKDDRAARGQPASDTDGLDSVEAAAPPPILSSSVEWSTSGERSASARFPATGPGSSDDEDDDEDEHGGVFSQSFLPASDSESDIIFDNEDENSKSQNQDEDCNEKNGCHESEPSVTTEAVHYLYIQMEYCEKSTLRDTIDQGLYRDTVRLWRLFREILDGLAYIHEKGMIHRDLKPVNIFLDSDDHVKIGDFGLATDHLAFSADSKQDDQTGDLIKSDPSGHLTGMVGTALYVSPEVQGSTKSAYNQKVDLFSLGIIFFEMSYHPMVTASERIFVLNQLRDPTSPKFPEDFDDGEHAKQKSVISWLLNHDPAKRPTATELLKSELLPPPQMEESELHEVLHHTLTNVDG",stoichiometry N,[4],2
